From PMC12221116, “Novel Quinazolinones Active against Multidrug‐Resistant Mycobacterium Tuberculosis: Synthesis, Antimicrobial Evaluation, and in Silico Exploration of Penicillin‐Binding Protein 1A as a Potential Target” (Chemmedchem, 2025)
Converted amounts (≈) assume the structure as drawn. Like-named read-outs stand apart in the source and are kept apart here.

Key:
Mtb H37Rv = assay: Microplate Alamar Blue assay, MIC; assay type: cell-based, Mycobacterium tuberculosis; conditions: Mycobacterium tuberculosis, H37RV
M. smegmatis = assay: Microdilution broth resazurin assay, MIC; assay type: cell-based, Mycolicibacterium smegmatis
M. kansasii = assay: Microplate Alamar Blue assay, MIC; assay type: cell-based, Mycobacterium kansasii; conditions: for MIC: Mycobacterium kansasii, read-out: Antimycobacterial Activity MIC M. kans.
M. avium = assay: Microdilution broth resazurin assay, MIC; assay type: cell-based, Mycobacterium avium
Mtb H37Ra = assay: Microdilution broth resazurin assay, MIC; assay type: cell-based, Mycobacterium tuberculosis
M. aurum = assay: Microdilution broth resazurin assay, MIC; assay type: cell-based, Mycolicibacterium aurum
[1] = Microplate Alamar Blue assay, read-out: Antimycobacterial Activity MIC Mtb H37Rv
[2] = Mycolicibacterium smegmatis, read-out: Antimycobacterial Activity MIC M. smeg.
[3] = Mycobacterium avium, read-out: Antimycobacterial Activity MIC M. avium
[4] = Mycobacterium tuberculosis, H37RA; read-out: Antimycobacterial Activity MIC Mtb H37Ra
[5] = Mycolicibacterium aurum, read-out: Antimycobacterial Activity MIC M. aurum
[6] = Mycolicibacterium smegmatis, DSM43465; internal quality controls (standards); read-out: MINIMUM INHIBITORY CONCENTRATION Mycolicibacterium smegmatis DSM 43465
[7] = Mycolicibacterium smegmatis; read-out: Antimycobacterial Activity MIC M. smeg.
[8] = Mycobacterium avium, DSM44156; internal quality controls (standards); read-out: MINIMUM INHIBITORY CONCENTRATION Mycobacterium avium DSM 44156
[9] = Mycobacterium avium; read-out: Antimycobacterial Activity MIC M. avium
[10] = Mycobacterium tuberculosis, H37RA, read-out: Antimycobacterial Activity MIC Mtb H37Ra
[11] = Mycobacterium tuberculosis, H37RA; internal quality controls (standards); read-out: MINIMUM INHIBITORY CONCENTRATION Mycobacterium tuberculosis H37Ra
[12] = Mycolicibacterium aurum, DSM43999; internal quality controls (standards); read-out: MINIMUM INHIBITORY CONCENTRATION Mycolicibacterium aurum DSM 43999
[13] = Mycolicibacterium aurum; read-out: Antimycobacterial Activity MIC M. aurum
[14] = read-out: Antimycobacterial Activity MIC Mtb H37Rv, Table S5 matching pairs series A and B
[15] = Table S5 matching pairs series A and B

SMILES | MIC (Mtb H37Rv; [1]) | MIC (M. smegmatis; [2]) | MIC (M. kansasii) | MIC (M. avium; [3]) | MIC (Mtb H37Ra; [4]) | MIC (M. aurum; [5]) | MIC (M. smegmatis; [7]) | also measured
Cc1nc2cc(Cl)ccc2c(=O)n1Cc1ccc(O)cc1 [Compound 14] | > 100 µg/mL | 62.5 µg/mL (≈ 208 µM) | > 100 µg/mL | 62.5 µg/mL (≈ 208 µM) | 62.5 µg/mL (≈ 208 µM) | 62.5 µg/mL (≈ 208 µM) |  | 
Cc1nc2cc(Cl)ccc2c(=O)n1/N=C/c1ccncc1 [Compound 31] | > 25 µg/mL | ≥ 31.2 µg/mL | > 25 µg/mL | ≥ 31.2 µg/mL | ≥ 31.2 µg/mL | ≥ 31.2 µg/mL |  | 
O=C(O)c1cn(C2CC2)c2cc(N3CCNCC3)c(F)cc2c1=O [CIP, ciprofloxacin, reference compound] |  |  | 0.25 µg/mL (≈ 0.754 µM) |  |  |  | 0.125 µg/mL (≈ 0.377 µM) | MIC (M. smegmatis; [6]): 0.0625 to 0.125 µg/mL (≈ 0.189 to 0.377 µM); MIC (M. avium; [8]): 0.5 µg/mL (≈ 1.51 µM); MIC (M. avium; [9]): 1.56 µg/mL (≈ 4.71 µM); MIC (Mtb H37Ra; [10]): 0.25 µg/mL (≈ 0.754 µM); MIC (Mtb H37Ra; [11]): 0.125 to 0.25 µg/mL (≈ 0.377 to 0.754 µM); MIC (M. aurum; [12]): 0.0078 to 0.0156 µg/mL (≈ 0.0235 to 0.0471 µM); MIC (M. aurum; [13]): 0.0156 µg/mL (≈ 0.0472 µM)
Cc1nc2cc(Cl)ccc2c(=O)n1/N=C/c1ccccc1O [Compound 35] | > 50 µg/mL | ≥ 31.2 µg/mL | > 50 µg/mL | ≥ 31.2 µg/mL | ≥ 31.2 µg/mL | ≥ 31.2 µg/mL |  | 
Cc1nc2cc(Cl)ccc2c(=O)n1/N=C/c1ccccc1Br [Compound 52] | > 25 µg/mL | ≥ 31.2 µg/mL | > 25 µg/mL | ≥ 31.2 µg/mL | ≥ 31.2 µg/mL | ≥ 31.2 µg/mL |  | 
Cc1nc2cc(Cl)ccc2c(=O)n1/N=C/C=C/c1ccccc1 [Compound 41] | > 25 µg/mL | ≥ 31.2 µg/mL | > 25 µg/mL | ≥ 31.2 µg/mL | ≥ 31.2 µg/mL | ≥ 31.2 µg/mL |  | 
Cc1ccccc1Cn1c(C)nc2cc(Cl)ccc2c1=O [Compound 20] | > 100 µg/mL |  | > 100 µg/mL |  |  |  | ≥ 250 µg/mL | MIC (Mtb H37Rv; [14]): > 100 µg/mL; Antimycobacterial Activity MIC M. smeg. (M. smegmatis; [15]): ≥ 250 µg/mL; MIC (M. avium; [9]): ≥ 250 µg/mL; Antimycobacterial Activity MIC M. avium (M. avium; [15]): ≥ 250 µg/mL; Antimycobacterial Activity MIC Mtb H37Ra (Mtb H37Ra): ≥250 µg/mL; MIC (Mtb H37Ra; [10]): ≥ 250 µg/mL; MIC (M. aurum; [13]): ≥ 250 µg/mL; Antimycobacterial Activity MIC M. aurum (M. aurum; [15]): ≥ 250 µg/mL
Cc1nc2cc(Cl)ccc2c(=O)n1/N=C/c1ccc(Cl)cc1 [Compound 51] | > 25 µg/mL | ≥ 15.6 µg/mL | > 25 µg/mL | ≥ 15.6 µg/mL | ≥ 15.6 µg/mL | ≥ 15.6 µg/mL |  | 
Cc1nc2cc(Cl)ccc2c(=O)n1Cc1ccccc1F [Compound 18] | > 100 µg/mL |  | > 100 µg/mL |  | ≥ 500 µg/mL |  | ≥ 500 µg/mL | MIC (M. avium; [9]): ≥ 500 µg/mL; MIC (M. aurum; [13]): ≥ 500 µg/mL
Cc1nc2ccccc2c(=O)n1Cc1ccc2ccccc2c1 [Compound 8] | > 100 µg/mL |  | 50 µg/mL (≈ 166 µM) | 62.5 µg/mL (≈ 208 µM) |  | 62.5 µg/mL (≈ 208 µM) | ≥ 500 µg/mL | MIC (Mtb H37Rv; [14]): > 100 µg/mL; Antimycobacterial Activity MIC M. smeg. (M. smegmatis; [15]): ≥ 500 µg/mL; Antimycobacterial Activity MIC M. kans. (M. kansasii; [15]): 50 µg/mL; Antimycobacterial Activity MIC M. avium (M. avium): 62.5 µg/mL; Antimycobacterial Activity MIC Mtb H37Ra (Mtb H37Ra): ≥250 µg/mL; MIC (Mtb H37Ra; [10]): ≥ 250 µg/mL; Antimycobacterial Activity MIC M. aurum (M. aurum): 62.5 µg/mL
Cc1cccc(/C=N/n2c(C)nc3cc(Cl)ccc3c2=O)c1 [Compound 47] | > 25 µg/mL | ≥ 31.2 µg/mL | > 25 µg/mL | ≥ 31.2 µg/mL | ≥ 31.2 µg/mL | ≥ 31.2 µg/mL |  | 
COc1ccccc1/C=N/n1c(C)nc2cc(Cl)ccc2c1=O [Compound 38] | > 25 µg/mL | ≥ 62.5 µg/mL | > 25 µg/mL | ≥ 62.5 µg/mL | ≥ 62.5 µg/mL | ≥ 62.5 µg/mL |  | 
Cc1nc2cc(Cl)ccc2c(=O)n1Cc1ccc2ccccc2c1 [Compound 23] | > 100 µg/mL | ≥ 125 µg/mL | > 100 µg/mL | ≥ 125 µg/mL |  | ≥ 125 µg/mL |  | MIC (Mtb H37Rv; [14]): > 100 µg/mL; Antimycobacterial Activity MIC M. smeg. (M. smegmatis): ≥125 µg/mL; Antimycobacterial Activity MIC M. avium (M. avium): ≥125 µg/mL; Antimycobacterial Activity MIC Mtb H37Ra (Mtb H37Ra): ≥125 µg/mL; MIC (Mtb H37Ra; [10]): ≥ 125 µg/mL; Antimycobacterial Activity MIC M. aurum (M. aurum): ≥125 µg/mL
CO[C@H]1/C=C/O[C@@]2(C)Oc3c(C)c(O)c4c(O)c(c(/C=N/N5CCN(C)CC5)c(O)c4c3C2=O)NC(=O)/C(C)=C\C=C\[C@H](C)[C@H](O)[C@@H](C)[C@@H](O)[C@@H](C)[C@H](OC(C)=O)[C@@H]1C [RIF, rifampicin] |  |  | 0.025 µg/mL (≈ 0.0304 µM) |  | 0.00156 µg/mL (≈ 0.0019 µM) |  | 12.5 µg/mL (≈ 15.2 µM) | MIC (M. smegmatis; [6]): 12.5 to 25 µg/mL (≈ 15.2 to 30.4 µM); MIC (M. avium; [8]): 0.0625 to 0.125 µg/mL (≈ 0.0759 to 0.152 µM); MIC (M. avium; [9]): 0.125 µg/mL (≈ 0.152 µM); MIC (Mtb H37Ra; [11]): 0.00156 to 0.0031 µg/mL (≈ 0.0019 to 0.00377 µM); MIC (M. aurum; [12]): 0.39 to 0.78 µg/mL (≈ 0.474 to 0.948 µM); MIC (M. aurum; [13]): 0.39 µg/mL (≈ 0.474 µM)
